One experiment concerns OTX2+ imDAP cells. In words: FACS analysis of OTX2 expression of imDAP cells derived from hiPSCs. Format: cell-based, human. The settings on record: 4-step protocol, Day 16. On the procedure: • 1. Individualize and collect cells by either Accutase or TrypLE treatment. • 2. Wash cells with 1 ml PBS and pellet cells at 250×g for […]. • 3. Remove supernatant, add ˜200 μl of 4% PFA, mix and fix for 10 min at RT. • 4. Pellet cells at 350×g for 5 min. • 5. Wash cells by 1 ml of FACS buffer and pellet cells at 350×g for 5 min. • 6. Remove supernatant, add 200 μl/tube of FACS buffer/0.1% Triton X, mix for 10 min at RT. • 7. Wash cells by 1 ml of FACS buffer and pellet cells at 350×g for 5 min. • 8. Remove supernatant, add 200 μl/tube of primary antibody diluted in FACS buffer, mix gently, and incubate for 30 min at RT. • 9. Wash cells by 1 ml of FACS buffer and pellet cells at 350×g for 5 min. • 10. Remove supernatant, and add 200 μl of secondary antibody diluted in FACS buffer, mix gently, and incubate for 30 min at RT. • 11. Wash cells by 1 ml of FACS buffer and pellet cells at 300×g for 5 min. • 12. Remove supernatant, add 200 μl of FACS buffer, and run samples on the flow cytometer.
On Day-1, EB formation (Stage 1) was carried out by dissociating hiPSCs (Nuwacell) to form a single-cell suspension and resuspending it in Epic medium (Nuwacell, #RP01001) containing 10 μM Blebbistatin (MCE, #HY-13441) in T25 flasks on a belly dancer and culturing the cells overnight. On Day 0, ventral midbrain floor plate differentiation (Stage 2) was initiated by changing the medium to a Stage 2-1 differentiation medium containing DMEM: F12/B27 (plus Vitamin A) (98:2, v/v) as basal medium and supplemented with 0.5 μM LDN193189, 10 μM SB431542, 500 ng/mL SHH C24II, 2 μM Purmorphamine, 10 nM SAG and 1.2 μM CHIR99021 and culturing the cells for 3 Days. […] The cells of each group were stained with OTX2-FITC antibody (Miltenyi, #130-121-195), the percentage of OTX2+ imDAP cells were analyzed by flow cytometry (FIG. 8A). The cells obtained by Boost-CHIR treatment from D4 to D6, D7 or D8, or from D5 to D7 or D8 were analyzed by qRT-PCR for dorsal midbrain marker PAX6 (FIG. 8B).

In a further experiment the test system is PAX6. In words: qRT-PCR analysis of dorsal midbrain marker PAX6 in imDAP cells. It counts as cell-based, human. The settings on record: exposure to Boost-CHIR 7.5 μM from Day 4 compared to from Day 5. On the procedure:
(1) qRT-PCR • 1. For qRT-PCR analysis of mRNA gene expression, RNA should be harvested from at least 2×10^6 cells. • 2. Harvest cells, add 350 μl of buffer RLT+1% (vol/vol) β-mercaptoethanol to the well, transfer the lysate to a 1.5 ml tube, and put it immediately on ice. • 3. Perform RNA extraction using the Tiangen Kit (DP430) and following the manufacturer's protocol ‘Purification of total RNA from animal and human cells’. • 4. When the RNA extraction was completed, determine the RNA concentration using a Nanodrop instrument. • 5. Perform the first-strand cDNA synthesis reaction with 1 μg of RNA using the HiScript™ II Q RT SuperMIX for qPCR (+gDNA wiper) Kit (Vazyme, #R223-01) for RT-qPCR. Follow the manufacturer's ‘First-Strand cDNA Synthesis’ protocol. This reaction would yield a 20 μl product. • 6. Dilute 10 μl cDNA product in 80 μl of nuclease-free water. • 7. […] In the analysis, the expression level of gene was determined by using a sample of undifferentiated hPSCs as control. • 8. Analyze the samples by running a quantitative PCR on the LightCycler 480 instrument using a 40x cycle two-step protocol with a 60° C., 60 sec annealing/elongation step and a 95° C., 30 sec denaturation step. […]

For the compound `Cc1cnc(-c2cnc(NCCNc3ccc(C#N)cn3)nc2-c2ccc(Cl)cc2Cl)[nH]1` [CHIR, CHIR99021], the “percentage of cells positive for OTX2” value in the experiment with OTX2+ imDAP cells (Boost-CHIR 7.5 μM from Day 4 to Day 6 (Stage 2-2)) is on record as 75.29%; with OTX2+ imDAP cells (Boost-CHIR 7.5 μM from Day 4 to Day 7 (Stage 2-2)), 71.92%; in the experiment with OTX2+ imDAP cells (Boost-CHIR 7.5 μM from Day 4 to Day 8 (Stage 2-2)), 79.83%. The “expression of PAX6” value in the experiment on PAX6 is “lower”.
